The record followed here is US11111230B2 (ADLAI NORTYE BIOPHARMA CO., LTD., priority 2017, dated 2021).

The test system of one experiment is Hela cells. Kind of experiment: Activity in Hela cells (interferon-γ induced, kynurenine readout with Ehrlich's reagent). To be noted: Homo sapiens, interferon-γ 50 ng/mL, tryptophan 16 mg/L, 48 hours, absorption at 480 nm. The format is cell-based. On the procedure:
Example 1: Study on the Activity of the Compound of the Present Invention in Hela Cells
Hela cells were seeded in 96-well culture plates and incubated at 37° C., 100% relative humidity, 5% CO2 incubator for 24 hours. The compound was dissolved in DMSO and diluted to an appropriate concentration, and then the compound was diluted 100-fold with DMEM medium containing interferon-γ and 10% fetal bovine serum to the final concentration of effect. Aspirate the old medium from the 96-well plate and add 200 μL of each medium containing compound and interferon-γ from the previous step. The content of tryptophan in the medium is 16 mg/L, and the concentration of interferon-γ is 50 ng/mL. The cells were placed in a 37° C., 100% relative humidity, and 5% CO2 incubator for 48 hours, then 140 μL of the cell culture supernatant was mixed with 15 μL of trichloroacetic acid, and placed at 52° C. for 30 min, then centrifuged at room temperature to take the centrifugal supernatant. Mix with an equal volume of Ehrlich's reagent, measure the light absorption at 480 nm, and calculate the IC50 values.

The target of the next experiment is T1, human IDO1 protein (Homo sapiens, UniProt P14902).
T1 construct: expressed in transfected cells; host or cells: HEK293
In words: Activity in HEK293 cells highly expressing human IDO1 protein. Format: cell-based. As to conditions: HEK293-IDO cells, tryptophan 16 mg/L, 24 hours, absorption at 480 nm; read-out: IC50 (HEK293 cell). On the procedure:
Example 2: Study on the Activity of the Present Invention in HEK293 Cells Highly Expressing Human IDO1 Protein
HEK293-IDO cells with high expression of human IDO1 protein were prepared by electrotransformation, and the cells were seeded in 96-well culture plates, and cultured at 37° C., 100% relative humidity, and 5% CO2 incubator for 24 hours. Dissolve in DMSO and dilute to the appropriate concentration, then use DMEM medium containing 10% fetal bovine serum to dilute the candidate 100-fold to the final concentration. Aspirate the old medium from the 96-well plate and add 200 μL of the medium contained in the previous step to each well. The content of tryptophan in the medium is 16 mg/L. The cells were placed in a 37° C., 100% relative humidity, and 5% CO2 incubator for 24 hours. 140 μL of the cell culture supernatant was mixed with 15 μL of trichloroacetic acid and placed at 52° C. for 30 min. Mix with an equal volume of Ehrlich's reagent, measure the light absorption at 480 nm, and calculate the IC50 values.

A value given as a limit tells only on which side of the number the result lay.

T1 sequence (P14902 whole entry): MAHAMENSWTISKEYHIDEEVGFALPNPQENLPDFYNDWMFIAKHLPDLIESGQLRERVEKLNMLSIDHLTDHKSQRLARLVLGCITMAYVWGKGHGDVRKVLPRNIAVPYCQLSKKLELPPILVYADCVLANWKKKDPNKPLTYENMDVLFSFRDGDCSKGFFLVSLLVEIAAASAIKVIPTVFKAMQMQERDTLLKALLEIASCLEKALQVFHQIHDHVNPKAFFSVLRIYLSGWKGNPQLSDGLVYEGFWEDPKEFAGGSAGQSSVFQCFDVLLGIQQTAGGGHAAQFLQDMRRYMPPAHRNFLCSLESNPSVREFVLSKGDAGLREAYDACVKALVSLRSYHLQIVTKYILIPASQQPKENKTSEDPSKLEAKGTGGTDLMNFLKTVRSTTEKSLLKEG

Regarding `Cc1cc2nccc(C3CCC4(CC3)CC4C(=O)Nc3ccc(Cl)cc3)c2cc1F` (stereo not drawn) [Compound 9, N-(4-chlorophenyl)-6-(6-fluoro-7-methylquinolin-4-yl)spiro[2.5]octane-1-carboxamide], the IC50 with Hela cells and at human IDO1 protein was 0.1 to 10 nM throughout.
Consider `O=C(Nc1ccc(Br)cc1)C1CC12CCC(c1ccnc3ccc(F)cc13)CC2` (stereo not drawn) [Compound 11, N-(4-bromophenyl)-6-(6-fluoroquinolin-4-yl)spiro[2.5]octane-1-carboxamide], for which the IC50 (commonly the point on the concentration scale where inhibition reaches its midpoint) was 0.1 to 10 nM in the experiment with Hela cells and 10 to 100 nM at human IDO1 protein.
In the same order, the values of `O=C(Nc1ccc(Cl)c(F)c1)C1CC12CCC(c1ccnc3ccc(F)cc13)CC2` (stereo not drawn) [Compound 12, N-(4-chloro-3-fluorophenyl)-6-(6-fluoroquinolin-4-yl)spiro[2.5]octane-1-carboxamide] are 10 to 100 nM and 10 to 100 nM.
In the same order, the values of `O=C(Nc1ccc(Cl)s1)C1CC12CCC(c1ccnc3ccc(F)cc13)CC2` (stereo not drawn) [Compound 13, N-(5-chlorothiophen-2-yl)-6-(6-fluoroquinolin-4-yl)spiro[2.5]octane-1-carboxamide] are 10 to 100 nM and 10 to 100 nM.
For `COCCOc1ccc(NC(=O)C2CC23CCC(c2ccnc4cc(C)c(F)cc24)CC3)cc1` (stereo not drawn) [Compound 94, 6-(6-fluoro-7-methylquinolin-4-yl)-N-(4-(2-methoxyethoxy)phenyl)spiro[2.5]octane-1-carboxamide], the figures for the half-maximal inhibitory concentration (IC50) in the experiment with Hela cells and on human IDO1 protein were 0.1 to 10 nM and 10 to 100 nM, respectively.
In the same order, the values of `Cc1cc2nccc(C3CCC4(CC3)CC4C(=O)Nc3ccc(Cl)nc3)c2cc1F` (stereo not drawn) [Compound 95, N-(6-chloropyridin-3-yl)-6-(6-fluoro-7-methylquinolin-4-yl)spiro[2.5]octane-1-carboxamide] are 0.1 to 10 nM and 10 to 100 nM.
In the same order, the values of `Cc1cc2nccc(C3CCC4(CC3)CC4C(=O)Nc3cncc(Cl)c3)c2cc1F` (stereo not drawn) [Compound 96] are 10 to 100 nM and greater than 100 nM.
In the same order, the values of `Cc1cc2nccc(C3CCC4(CC3)CC4C(=O)Nc3ccnc(Cl)c3)c2cc1F` (stereo not drawn) [Compound 97] are greater than 100 nM and greater than 100 nM.
In the case of `O=C(Nc1ccc(Cl)cc1)C1CC12CCC(c1ccnc3cc(F)c(F)cc13)CC2` (stereo not drawn) [Compound 100, N-(4-chlorophenyl)-6-(6,7-difluoroquinolin-4-yl)spiro[2.5]octane-1-carboxamide], the values for the IC50 in the experiment on Hela cells and on human IDO1 protein were 0.1 to 10 nM and 10 to 100 nM, respectively.
As for `COc1cc2nccc(C3CCC4(CC3)CC4C(=O)Nc3ccc(Cl)cc3)c2cc1OC` (stereo not drawn) [Compound 101], the IC50 in the experiment with Hela cells lay in the range of 0.1 to 10 nM; on human IDO1 protein, 10 to 100 nM.
Regarding `N#Cc1cc2nccc(C3CCC4(CC3)CC4C(=O)Nc3ccc(Cl)cc3)c2cc1F` (stereo not drawn) [Compound 102, N-(4-chlorophenyl)-6-(7-cyano-6-fluoroquinolin-4-yl)spiro[2.5]octane-1-carboxamide], the figures for the IC50 in the experiment on Hela cells and at human IDO1 protein were 0.1 to 10 nM and 10 to 100 nM, respectively.
In the same order, the values of `O=C(Nc1ccc(Cl)cc1)C1CC12CCC(c1ccnc3cc4c(cc13)OCCO4)CC2` (stereo not drawn) [Compound 103, N-(4-chlorophenyl)-6-(2,3-dihydro-[1,4]dioxino[2,3-g]quinolin-9-yl)spiro[2.5]octane-1-carborboxamide] are greater than 100 nM and greater than 100 nM.
As for `O=C(Nc1ccc(Cl)cc1)C1CC12CCC(O)(c1ccnc3ccc(F)cc13)CC2` (stereo not drawn) [Compound 104, N-(4-chlorophenyl)-6-(6-fluoroquinolin-4-yl)-6-hydroxyspiro[2.5]octane-1-carboxamide], the IC50 in the experiment with Hela cells and at human IDO1 protein was greater than 100 nM throughout.
For `COc1cc2nccc(C3CCC4(CC3)CC4C(=O)Nc3ccc(Cl)cc3)c2cc1F` (stereo not drawn) [Compound 105, N-(4-chlorophenyl)-6-(6-fluoro-7-methoxyquinolin-4-yl)spiro[2.5]octane-1-carboxamide], the IC50 is 10 to 100 nM in the experiment with Hela cells and 0.1 to 10 nM at human IDO1 protein.
In the same order, the values of `CC1(C(=O)Nc2ccc(Cl)cc2)CC12CCC(c1ccnc3ccc(F)cc13)CC2` (stereo not drawn) [Compound 106, N-(4-chlorophenyl)-6-(6-fluoroquinolin-4-yl)-1-methylspiro[2.5]octane-1-carboxamide] are greater than 100 nM and greater than 100 nM.
As to `N#CC1(C(=O)Nc2ccc(Cl)cc2)CC12CCC(c1ccnc3ccc(F)cc13)CC2` (stereo not drawn) [Compound 107, N-(4-chlorophenyl)-1-cyano-6-(6-fluoroquinolin-4-yl)spiro[2.5]octane-1-carboxamide], the IC50 with Hela cells and on human IDO1 protein was greater than 100 nM throughout.
Consider `O=C(Nc1ccc(Cl)cc1)C1CC12CCC(c1ccnc3cc4c(cc13)OCO4)CC2` (stereo not drawn) [Compound 110, 6-([1,3]dioxolo[4,5-g]quinolin-8-yl)-N-(4-chlorophenyl)spiro[2.5]octane-1-carboxamide], for which the IC50 in the experiment with Hela cells was 10 to 100 nM; on human IDO1 protein, greater than 100 nM.
In the same order, the values of `COC(=O)COc1ccc(NC(=O)C2CC23CCC(c2ccnc4cc(C)c(F)cc24)CC3)cc1` (stereo not drawn) [Compound 111, Methyl 2-(4-(6-(6-fluoro-7-methylquinolin-4-yl)spiro[2.5]octane-1-carboxamido)phenoxy)acetate] are greater than 100 nM and greater than 100 nM.
In the same order, the values of `Cc1cc2nccc(C3CCC4(CC3)CC4C(=O)Nc3ccc(OCCO)cc3)c2cc1F` (stereo not drawn) [Compound 112, 6-(6-fluoro-7-methylquinolin-4-yl)-N-(4-(2-hydroxyethoxy)phenyl)spiro[2.5]octane-1-carboxamide] are 10 to 100 nM and greater than 100 nM.
In the same order, the values of `COCCOc1ccc(NC(=O)C2CC23CCC(c2ccnc4cc(OC)c(OC)cc24)CC3)cc1` (stereo not drawn) [Compound 113, 6-(6,7-dimethoxyquinolin-4-yl)-N-(4-(2-methoxyethoxy)phenyl)spiro[2.5]octane-1-carboxamide] are 0.1 to 10 nM and 10 to 100 nM.
As for `O=C(Nc1ccc(Cl)cc1)C1CC12CCC(c1ccnc3cc(CO)c(F)cc13)CC2` (stereo not drawn) [Compound 114, N-(4-chlorophenyl)-6-(6-fluoro-7-(hydroxymethyl)quinolin-4-yl)spiro[2.5]octane-1-carboxamide], the figures for the IC50 in the experiment with Hela cells and on human IDO1 protein were 0.1 to 10 nM and 10 to 100 nM, respectively.
